How the values were obtained:
CDK2/Cyclin A = molecular target: T1, CDK2/Cyclin A (Homo sapiens, UniProt P24941); assay: Enzymatic assay for CDK2 (FRET based LANCE Ultra kinase assay); format: biochemical; details: read-out: CDK2 enzymatic activity (IC50 activity range)
T1 construct: purchased Invitrogen PV6290
Outline: (§1)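 Each CDK complex ([…]) phosphorylated 68 nM ULight-MBP peptide with ATP at Km for 60 min at 23° C., against 8 compound doses (4-fold dilutions). EDTA/Eu-anti-phospho-MBP detection, 60 min, then TR-FRET emission at 615 and 665 nm.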

OVCAR-3 = assay: Cellular OVCAR-3 viability assay (CellTiter-Glo, 72 hours); format: cell-based; details: Homo sapiens
Excerpt: Human T-cell acute lymphoblastic leukemia cell line, MOLT-4 (ATCC, Cat #CRL-1582), Human multiple myeloma cell line, RPMI-8226 (Invitrogen, Cat #22400-089) and MM.1S (ATCC, Cat #CRL-2974), NSCLC (Non-small cell lung cancer) cell line H460 (ATCC, Cat #HTB-177), Human colon colorectal carcinoma cell line HCT116 (ATCC, Cat #CCL-247), Human acute monocytic leukemia cell line MV4-11 (ATCC, Cat #CRL-9591), OVCAR-3 (ATCC, Cat #HTB-161) and A2780 (ECACC, Cat #93112519) were obtained from ATCC. Cells were grown in RPMI-1640 media (Invitrogen, Cat #22400-089) supplemented with 10% FBS (Invitrogen, Cat #10099141) and 1% penicillin/streptomycin (Invitrogen, Cat #15070063) and cultured at 37° C., 5% CO2 in a humidified chamber. All cell lines were routinely tested for mycoplasma.
The effect of the CDK7 inhibitor to inhibit the growth of target cancer cells was evaluated through the 72 hours time period of viability assay. Briefly, the candidate cell line ware plated in 96 well plate at the following density of cells respectively. 1×10^4 cells/well for MOLT-4, RPMI-8226, MV4-11 and MM.1S, 5×10^3 for H460, HCT116 and OVCAR-3 and IX 10^3 for A2780. After 24 hours, the cells were treated with various concentrations of the compound (ranging from 0.0015 uM to 10 uM). DMSO solvent without compound served as a control and final DMSO concentration less than 0.1%. After 72 hours of incubation at 37° C., 5% CO2 incubator, cells were analyzed for the viability using the CellTiter-Glo Luminescent Cell Viability Assay (Promega, Cat #G7570). All viability assays were performed in duplicate and Luminescence was read using an Envision (Perkin Elmer, USA). Data was analyzed using XLfit software.

H460 = assay: Cellular H460 viability assay (CellTiter-Glo, 72 hours); format: cell-based; details: Homo sapiens, NCI-H460
Outline: (§2)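 72 h treatment, 37 °C, 5% CO2; DMSO ctrl, final <0.1%; CellTiter-Glo luminescence; n=2.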

MV4-11 = assay: Cellular MV4-11 viability assay (CellTiter-Glo, 72 hours); format: cell-based; details: Homo sapiens
Outline: as §2

CDK7/Cyclin H/MNAT1 = molecular target: T2, CDK7/Cyclin H/MNAT1 (Homo sapiens, UniProt P50613); assay: Enzymatic assay for CDK7 (FRET based LANCE Ultra kinase assay); format: biochemical; details: for IC50: read-out: CDK7 enzymatic activity (IC50 activity range)
T2 construct: purchased Invitrogen PR6749B
T2 sequence (P50613 whole entry): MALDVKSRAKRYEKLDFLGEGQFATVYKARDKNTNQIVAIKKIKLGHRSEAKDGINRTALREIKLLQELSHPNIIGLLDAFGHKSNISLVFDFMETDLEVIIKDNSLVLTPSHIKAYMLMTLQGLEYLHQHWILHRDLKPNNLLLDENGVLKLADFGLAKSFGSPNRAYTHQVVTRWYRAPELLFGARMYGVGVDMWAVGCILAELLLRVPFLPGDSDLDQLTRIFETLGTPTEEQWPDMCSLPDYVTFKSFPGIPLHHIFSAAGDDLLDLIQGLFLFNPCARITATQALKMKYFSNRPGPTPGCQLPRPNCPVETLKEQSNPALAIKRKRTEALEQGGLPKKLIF
T2 sequence (P51946 whole entry partner): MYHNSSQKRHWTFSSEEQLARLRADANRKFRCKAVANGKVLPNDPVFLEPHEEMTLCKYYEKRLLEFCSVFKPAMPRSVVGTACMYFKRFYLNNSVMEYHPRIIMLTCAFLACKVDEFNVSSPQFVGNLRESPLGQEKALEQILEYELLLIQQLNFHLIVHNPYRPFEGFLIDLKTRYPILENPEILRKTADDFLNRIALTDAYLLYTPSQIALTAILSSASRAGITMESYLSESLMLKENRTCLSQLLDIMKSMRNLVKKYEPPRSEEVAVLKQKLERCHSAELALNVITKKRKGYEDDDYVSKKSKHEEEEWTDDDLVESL
T2 sequence (P51948 whole entry partner): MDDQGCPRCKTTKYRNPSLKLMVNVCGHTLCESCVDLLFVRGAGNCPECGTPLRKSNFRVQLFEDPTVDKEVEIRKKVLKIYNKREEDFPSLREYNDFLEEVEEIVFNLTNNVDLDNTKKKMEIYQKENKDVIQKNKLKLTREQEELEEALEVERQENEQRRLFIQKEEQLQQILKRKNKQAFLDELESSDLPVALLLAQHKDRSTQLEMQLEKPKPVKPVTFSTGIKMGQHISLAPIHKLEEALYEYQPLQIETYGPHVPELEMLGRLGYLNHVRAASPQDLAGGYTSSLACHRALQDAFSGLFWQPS
Outline: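 LANCE Ultra TR-FRET kinase assay using a ULight-labeled peptide substrate and a Eu-labeled anti-phospho antibody, with ATP at its Km. Purified CDK/cyclin complex was added to compound after brief centrifugation.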

CDK1/Cyclin B = molecular target: T3, CDK1/Cyclin B (Homo sapiens, UniProt P06493); assay: Enzymatic assay for CDK1 (FRET based LANCE Ultra kinase assay); format: biochemical; details: read-out: CDK1 enzymatic activity (IC50 activity range)
T3 construct: purchased Invitrogen PR4768C
T3 sequence (P06493 whole entry): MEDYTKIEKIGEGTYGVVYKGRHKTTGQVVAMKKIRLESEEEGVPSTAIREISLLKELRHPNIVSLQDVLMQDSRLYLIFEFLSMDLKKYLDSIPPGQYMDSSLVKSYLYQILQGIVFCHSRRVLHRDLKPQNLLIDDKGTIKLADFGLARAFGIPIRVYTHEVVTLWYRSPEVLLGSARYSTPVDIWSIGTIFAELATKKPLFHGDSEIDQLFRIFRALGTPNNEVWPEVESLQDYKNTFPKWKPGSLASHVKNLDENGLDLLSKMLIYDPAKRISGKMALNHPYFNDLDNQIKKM
T3 sequence (P14635 whole entry partner): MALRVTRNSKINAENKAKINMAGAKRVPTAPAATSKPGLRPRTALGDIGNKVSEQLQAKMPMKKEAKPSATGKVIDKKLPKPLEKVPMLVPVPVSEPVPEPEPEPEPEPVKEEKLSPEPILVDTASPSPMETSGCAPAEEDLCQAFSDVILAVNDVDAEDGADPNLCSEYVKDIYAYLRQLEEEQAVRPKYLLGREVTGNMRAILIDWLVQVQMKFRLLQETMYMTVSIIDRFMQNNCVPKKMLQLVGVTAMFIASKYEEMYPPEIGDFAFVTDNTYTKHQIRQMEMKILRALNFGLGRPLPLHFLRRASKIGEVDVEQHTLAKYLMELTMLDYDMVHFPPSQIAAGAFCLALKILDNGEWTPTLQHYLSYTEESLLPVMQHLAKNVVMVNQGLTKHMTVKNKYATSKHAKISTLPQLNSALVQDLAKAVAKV
Outline: as §1

CDK5/p25 = molecular target: T4, CDK5/p25 (Homo sapiens, UniProt Q00535); assay: Enzymatic assay for CDK5 (FRET based LANCE Ultra kinase assay); format: biochemical; details: read-out: CDK5 enzymatic activity (IC50 activity range)
T4 construct: purchased Invitrogen PR8543B
T4 sequence (Q00535 whole entry): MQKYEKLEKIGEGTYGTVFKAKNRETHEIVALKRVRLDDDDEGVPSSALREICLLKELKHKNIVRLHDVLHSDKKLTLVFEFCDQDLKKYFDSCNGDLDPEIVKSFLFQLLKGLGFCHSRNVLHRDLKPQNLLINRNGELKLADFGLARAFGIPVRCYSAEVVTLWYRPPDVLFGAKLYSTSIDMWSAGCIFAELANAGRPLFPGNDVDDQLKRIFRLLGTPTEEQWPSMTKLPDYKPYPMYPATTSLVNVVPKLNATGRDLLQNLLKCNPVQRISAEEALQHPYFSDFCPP
T4 sequence (Q15078 99-307 partner limits assumed): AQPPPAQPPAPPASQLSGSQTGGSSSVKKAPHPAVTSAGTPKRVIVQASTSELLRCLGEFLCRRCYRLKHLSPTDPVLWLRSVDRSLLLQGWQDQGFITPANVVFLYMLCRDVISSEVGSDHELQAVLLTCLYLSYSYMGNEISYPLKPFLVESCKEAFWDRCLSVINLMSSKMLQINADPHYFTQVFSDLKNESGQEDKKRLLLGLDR
Outline: as §1

A2780 = assay: Cellular A2780 viability assay (CellTiter-Glo, 72 hours); format: cell-based; details: Homo sapiens
Outline: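 Cells seeded at 1×10^4/well (MM.1S), 5×10^3 (OVCAR-3) or 1×10^3 (A2780), grown in RPMI-1640 with 10% FBS. After 24 h, compound added at 0.0015–10 uM, final DMSO below 0.1%, for 72 h at 37° C. Viability read by CellTiter-Glo luminescence in duplicate, with curve fitting.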

IC50 (CDK2/Cyclin A) | IC50 (OVCAR-3) | IC50 (H460) | IC50 (MV4-11) | CDK1/CDK7: Selectivity of CDK7 inhibition over CDK1 inhibition (CDK7/Cyclin H/MNAT1) | CDK2/CDK7: Selectivity of CDK7 inhibition over CDK2 inhibition (CDK7/Cyclin H/MNAT1) | CDK5/CDK7: Selectivity of CDK7 inhibition over CDK5 inhibition (CDK7/Cyclin H/MNAT1) | IC50 (CDK7/Cyclin H/MNAT1) | IC50 (CDK1/Cyclin B) | IC50 (CDK5/p25) | IC50 (A2780) | SMILES
> 1000 nM | 1000 to 10000 nM | < 1000 nM | 1000 to 10000 nM | A (A=greater than 200 fold) | A (A=greater than 200 fold) | A (A=greater than 200 fold) | < 100 nM | > 1000 nM | > 1000 nM | ≤ 1000 nM | CC(C)c1cnn2c(NCc3ccccc3-c3ccc4ccccc4n3)nc(N[C@H]3CC[C@@H](O)CC3)nc12 [Compound 265]
> 1000 nM | ≤ 1000 nM | < 1000 nM | 1000 to 10000 nM | A (A=greater than 200 fold) | A (A=greater than 200 fold) | A (A=greater than 200 fold) | < 100 nM | > 1000 nM | > 1000 nM | ≤ 1000 nM | CC(C)c1cnn2c(NCc3ccccc3-c3ccc4ccccc4n3)nc(N[C@H]3CC[C@H](O)CC3)nc12 [Compound 266]
> 1000 nM | ≤ 1000 nM | < 1000 nM | < 1000 nM | A (A=greater than 200 fold) | A (A=greater than 200 fold) | A (A=greater than 200 fold) | < 100 nM | > 1000 nM | > 1000 nM | ≤ 1000 nM | CC(C)c1cnn2c(NCc3ccccc3-c3ccc4ccccc4n3)nc(N3CCNC[C@H]3CO)nc12 [Compound 271]
> 1000 nM | > 10000 nM | – | – | C (C=less than 20 fold) | C (C=less than 20 fold) | C (C=less than 20 fold) | > 1000 nM | > 1000 nM | > 1000 nM | > 10000 nM | CC(C)c1cnn2c(NCc3c(Cl)cccc3-n3ccc(C(C)(C)O)n3)nc(Nc3cc[nH]c3)nc12 [Compound 277]
> 1000 nM | > 10000 nM | – | – | A (A=greater than 200 fold) | A (A=greater than 200 fold) | A (A=greater than 200 fold) | < 100 nM | > 1000 nM | > 1000 nM | 1000 to 10000 nM | CC(C)c1cnn2c(NCc3ccccc3-c3nccc4cc(NC(=O)CCCN(C)C)ccc34)nc(NC[C@H]3CCNC[C@@H]3O)nc12 [Compound 278]

SMILES | IC50 (CDK2/Cyclin A) | IC50 (OVCAR-3) | IC50 (H460) | IC50 (MV4-11) | CDK1/CDK7: Selectivity of CDK7 inhibition over CDK1 inhibition (CDK7/Cyclin H/MNAT1) | CDK2/CDK7: Selectivity of CDK7 inhibition over CDK2 inhibition (CDK7/Cyclin H/MNAT1) | CDK5/CDK7: Selectivity of CDK7 inhibition over CDK5 inhibition (CDK7/Cyclin H/MNAT1) | IC50 (CDK7/Cyclin H/MNAT1) | IC50 (CDK1/Cyclin B) | IC50 (CDK5/p25) | IC50 (A2780)
CC(C)c1cnn2c(NCc3ccccc3-c3nccc4ccccc34)nc(NC[C@H]3CCNC[C@@H]3O)nc12 [Compound 279] | > 1000 nM | 1000 to 10000 nM | – | – | B (B=less than 200 fold, but greater than 20 fold) | B (B=less than 200 fold, but greater than 20 fold) | B (B=less than 200 fold, but greater than 20 fold) | 100 to 1000 nM | > 1000 nM | > 1000 nM | ≤ 1000 nM

Reference: patent publication US11945822B2, “Pyrazolo-triazine and/or pyrazolo-pxrimidine derivatives as selective inhibitor of cyclin dependent kinase” (QURIENT CO., LTD., priority 2018, dated 2024)
